Laboratory results published in patent publication EP0568307A1, “Cosmetic composition containing alpha hydroxy carboxylic acids as preservatives” (priority 1992, dated 1993).

Columns and labels:
Format in all cases: cell-based
[1] = tested on: Aspergillus niger & Penicillium sp.; assay: Mould challenge test (mould spore suspension, viable count after 1, 7, 14, 28 days); conditions: pH 5.5
Description: (§1) The micro-organisms selected for this test were: • i) Pseudomonas cepacia - a gram-negative bacterium, • ii) Candida parapsilosis - a yeast, and • iii) Aspergillus niger & Penicillium sp., - a mixture of moulds.
The above procedure applies to the inoculation of the bacterium and the yeast, and this procedure was varied slightly with the mixed culture of moulds as follows: • i) two samples of each test composition (9.9 ml and 9 ml) were transferred to sterile flasks and 0.1 ml or 1 ml of a mould spore suspension (approximately 10⁸ spores per ml) was introduced into the respective samples and thoroughly mixed. The inoculated samples were incubated at 28°C for up to 28 days with 1 ml samples being aseptically removed for the total viable count as outlined above using Sabouraud's dextrose agar after 1, 7, and 28 days. • ii) "Low risk" compositions eliminate mould spores in 1 to 2 days, "medium risk" compositions take 7 to 14 days to eliminate the spores and the "high risk" compositions still have surviving mould spores after 14 days incubation.

[2] = tested on: one of the test organisms; assay: Challenge test, inoculations to failure, Series V (organism not stated in Table 10); conditions: 1% w/w added to oil-in-water skin cream, pH 5.5
Description: (§2) This test involved incubating under standard conditions test compositions which have been inoculated with a selected bacterium, yeast or a mixture of moulds. […] Accordingly, the higher the number of "challenges", the better is the preservative. substance in preventing or at least delaying microbial spoilage.
(§3) The method of testing was as follows: • i) Introduce aseptically 99 ml of test composition into a 250 ml flask and add 1 ml of inoculum of one of the test organisms (see above), to provide a dilution of 10⁶ cells/ml in the composition. • ii) mix and incubate at 28°C for 24 hours. • iii) remove 1 ml of incubated composition from the flask and add to it 9 ml of peptone water/Tween 80 as diluent and mix thoroughly. • iv) place 1 ml of diluted sample into a petri dish and add warm, molten agar (40°C) and mix to distribute culture uniformly and allow to set. • v) incubate plates for 3 days at 28°C and then count colonies and note log reduction of count (due to the presence of the preservative in the original culture composition).
(§4) The inoculation of the organisms originally introduced into each composition is then repeated at 24 hour intervals, following removal of the first total viable count sample, the plating out and counting procedure being repeated on each occasion. The test is terminated when the samples show a contamination level greater than 10² counts per ml on 2 consecutive days. This point is regarded as the failure point for the composition under test.
(§5) The greater the number of inoculations of contaminant organisms before this level of contamination is established in the composition, the better the preservative system.
Various preservative materials were added to samples of this base formulation. The resulting compositions were subjected to the mould challenge test, as set out in Table 10 below.

[3] = tested on: Pseudomonas cepacia; assay: Challenge test, repeated inoculation with a bacterium until failure; conditions: Series IV, pH 5.5
Description: A test was devised to assess the ability of selected hydroxyorganic acids to preserve, against microbial spoilage, compositions according to the invention and, by way of comparison, others containing conventional chemical preservative substances.
as §2, §1, §3, §4, §5

[4] = Series V, 1% w/w added to oil-in-water skin cream
[5] = Series IV, 0.1 % w/w in water-in-oil cream
[6] = Series IV, 0.25 % w/w in water-in-oil cream
[7] = Series IV, 0.5 % w/w in water-in-oil cream
[8] = Series IV, 0.75 % w/w in water-in-oil cream
[9] = Series IV, 1 % w/w in water-in-oil cream

For `COCCCCCCCC=CCC(O)C(=O)O` (stereo not shown) ['oxa' hydroxy acid, 2-Hydroxy-13-oxa-4-tetradecenoic acid], the “preservation against the mould challenge (in words)” value ([1]; Series II) was “good preservation”.

With `CCCCCCCCCCCC(=O)O` [Lauric acid, reference compound] the “mould challenge 1%” value [1, 4] was “++++” and the “No of inoculations to failure” value [2] was 1.

In the case of `CCCCCCCCCCCC(=O)OCC(O)CO` (stereo not shown) [Monolaurin, reference compound], the “mould challenge 1%” value [1, 4] is reported as “++++” and the “No of inoculations to failure” value [2] is reported as 1.

For `CCCCCCC(O)C(=O)O` (stereo not shown) [2-hydroxyoctanoic acid], the “mould challenge 1%” value [1, 5] was “++”, the “mould challenge 10%” value [1, 5] was “++” and the “mould challenge 1%” value [1, 6] was “++”. For the same compound, the “mould challenge 10%” value [1, 6] was “++”, the “mould challenge 1%” value [1, 7] was “+” and the “mould challenge 10%” value [1, 7] was “++”. The “mould challenge 1%” value [1, 8] was “+”, the “mould challenge 10%” value [1, 8] was “++” and the “mould challenge 1%” value [1, 9] was “-”. The “mould challenge 10%” value [1, 9] was “-”, the “mould challenge 1%” value [1, 4] was “+” and the “No of inoculations to failure” value [2] was greater than 20. For the same compound, the “number of inoculations of bacteria to failure” value (“number” below) ([3]; 0.1 % w/w in water-in-oil cream) was 4, the “number” value ([3]; 0.25 % w/w in water-in-oil cream) was 4 and the “number” value ([3]; 0.5 % w/w in water-in-oil cream) was 20. The “number” value ([3]; 0.75 % w/w in water-in-oil cream) was greater than 20 and the “number” value ([3]; 1 % w/w in water-in-oil cream) was greater than 20.
